Assay results as given in article PMC11003996 (Cell Discovery, 2024).
“And” between values parts separate entries of the source, which are not always exact repeats. Equal values may be shown once.

How the values were obtained:
SARS-CoV-2 3CLpro M49I = assay type: biochemical
SARS-CoV-2 3CLpro T25I = assay type: biochemical
[1] = test system: SARS-CoV-2 3CLpro T25V in HEK 293T cells; assay type: cell-based
SARS-CoV-2 3CLpro T25V = assay type: biochemical
[2] = test system: SARS-CoV-2 3CLpro M49I in HEK 293T cells; assay type: cell-based
[3] = test system: SARS-CoV-2 3CLpro L50F/E166V in HEK 293T cells; assay type: cell-based

Row | Structure (SMILES) | Fold change in IC50 (relative to WT) (SARS-CoV-2 3CLpro M49I) | Fold change in IC50 (relative to WT) (SARS-CoV-2 3CLpro T25I) | Inhibition of 3CLpro in HEK 293T cells: Fold change in IC50 (relative to WT) [1] | Fold change in IC50 (relative to WT) (SARS-CoV-2 3CLpro T25V) | Inhibition of 3CLpro in HEK 293T cells: Fold change in IC50 (relative to WT) [2] | Inhibition of 3CLpro in HEK 293T cells: Fold change in IC50 (relative to WT) [3]
1 | Cn1cnc(Cn2c(=O)[nH]/c(=N\c3cc4cn(C)nc4cc3Cl)n(Cc3cc(F)c(F)cc3F)c2=O)n1 [ensitrelvir] | 4.5 | 3.2 | 3.3 | 5.7 | 21.8 and ~20 | 
2 | CC(C)(C)[C@H](NC(=O)C(F)(F)F)C(=O)N1C[C@H]2[C@@H]([C@H]1C(=O)N[C@H](C#N)C[C@@H]1CCNC1=O)C2(C)C [nirmatrelvir] |  |  |  |  |  | 18.4
